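Cells were grown in 96-well plates and exposed to each compound for 48 hours at five concentrations; endpoints were interpolated linearly between bracketing concentrations, or set to the highest concentration if not reached. GI50: concentration for 50% inhibition of growth. Definition used: TGI = concentration required for complete inhibition of growth.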
Assays:
Test in all cases: inhibition of tumour cell growth, NCI panel, 48 h
786-0 renal = tested on: 786-0 renal
ACHN renal = tested on: ACHN renal
HCC-2998 colon = tested on: HCC-2998 colon
NCI/ADR-RES ovarian = tested on: NCI/ADR-RES ovarian
PC-3 prostate = tested on: PC-3 prostate
T-47D breast = tested on: T-47D breast
SF-539 CNS = tested on: SF-539 CNS
U251 CNS = tested on: U251 CNS
HOP-92 NSCLC = tested on: HOP-92 NSCLC
SF-268 CNS = tested on: SF-268 CNS

Row | Structure (SMILES) | GI50 (786-0 renal) | TGI (786-0 renal) | GI50 (ACHN renal) | TGI (ACHN renal) | GI50 (HCC-2998 colon) | TGI (HCC-2998 colon) | GI50 (NCI/ADR-RES ovarian) | TGI (NCI/ADR-RES ovarian) | GI50 (PC-3 prostate) | TGI (PC-3 prostate) | GI50 (T-47D breast) | TGI (T-47D breast) | TGI (SF-539 CNS) | TGI (U251 CNS) | TGI (HOP-92 NSCLC) | GI50 (SF-268 CNS) | TGI (SF-268 CNS) | GI50 (SF-539 CNS) | GI50 (U251 CNS) | GI50 (HOP-92 NSCLC)
1 | O=C(O)c1cn(C2CC2)c2cc(N3CCNCC3)c(F)cc2c1=O | > 100 µM | > 100 µM | > 100 µM | > 100 µM | 98 µM | > 100 µM | > 100 µM | > 100 µM | > 100 µM | > 100 µM | 70 µM | > 100 µM |  |  |  |  |  |  |  | 
2 | O=C(Oc1ccc2c(-c3ccccc3)c(C(=O)Nc3ccc(Cl)cc3)c(=O)oc2c1)c1ccccc1 |  | > 100 µM |  | > 100 µM |  |  |  |  |  |  |  |  | > 100 µM | > 100 µM |  |  |  |  |  | 
3 | O=C(Nc1ccc(Oc2ccc(NC(=O)Nc3ccc([N+](=O)[O-])cc3)cc2)cc1)Nc1ccc([N+](=O)[O-])cc1 | 3.15 µM | > 36.2 µM | 1.92 µM | > 52.6 µM | 2.28 µM | 8.02 µM | 3.88 µM | > 91.3 µM | 1.04 µM | > 22.8 µM | 0.944 µM | 6.74 µM | 20.6 µM | 12.5 µM | 2.07 µM | 3.1 µM | > 100 µM | 3.07 µM | 2.16 µM | 
4 | Nc1nc(-c2ccc(Cl)cc2)cc(-c2ccc(Cl)cc2)c1-c1nc2ccccc2o1 | 17.9 µM | 36.4 µM | 17.4 µM | 33.2 µM | 16.9 µM | 33.3 µM | 14.5 µM | 30.9 µM | 13.2 µM | 27.1 µM | 13.4 µM | 29.6 µM | 35.7 µM | 36 µM | 21.2 µM | 14.5 µM | 34.1 µM | 19.9 µM | 18.5 µM | 6.24 µM
5 | Cc1cn([C@H]2C[C@H](O)[C@@H](CO)O2)c(=O)nc1N |  | > 100 µM |  | > 100 µM |  |  |  | > 100 µM |  | > 100 µM |  | > 100 µM | > 100 µM | > 100 µM |  |  | > 100 µM |  |  | 
6 | ClC1c2ccccc2C2(c3ccccc3)OOC1(c1ccccc1)O2 (stereo not drawn) |  | 2.98 µM |  | 2.89 µM |  | 6.24 µM |  |  |  |  |  |  | 5.01 µM | 3.59 µM | 0.987 µM |  | 4.19 µM |  |  | 
7 | O=C1CCSC(=S)N1c1ccc(Br)c(Cl)c1 |  | 62 µM |  | 38.9 µM |  |  |  | > 100 µM |  | > 100 µM |  | 39.5 µM | > 100 µM | 63.7 µM | 69.1 µM |  | 44.2 µM |  |  | 
8 | O=C1CCCC(O)=C1SC1=C(O)CCCC1=O |  | > 100 µM |  |  |  | > 100 µM |  |  |  |  |  |  | > 100 µM | > 100 µM | > 100 µM |  | > 100 µM |  |  | 
9 | COc1ccc(-c2nnc(SCC(=O)Nc3ccc(C(=O)/C=C/c4cc(OC)c(OC)c(OC)c4)cc3)n2-c2ccccc2)cc1OC | 3.53 µM | > 10 µM | 5.69 µM | > 10 µM | 3.08 µM | > 10 µM | > 10 µM | > 10 µM | 6.89 µM | > 10 µM | 4.74 µM | > 10 µM | > 10 µM | > 10 µM |  | 3.46 µM | > 10 µM | 3.2 µM | 5.39 µM | 

Source: PubChem BioAssay (NCI)
